These results are taken from US4202892A, “Biocidal methyladamantyl hydrazines and pharmaceutical compositions containing them” (Teva Pharmaceutical Industries, Ltd., priority 1977, dated 1980).

Where “and” joins values, the source holds several entries; their conditions need not be identical. Equal entries are not always repeated. Structures can show the parent of a compound that is named as a salt.

Assay [1] concerns 4 mycoplasma (M. gallisepticum, capricolum, M. hominis, A. laidlawii). The assay is described as follows: organism not typed. The class given is cell-based. To be noted: read-out: 50% inhibition of growth in liquid medium, concentration.
The test system of another assay is L. tropica amastigotes. The assay is described as follows: L. tropica amastigotes in peritoneal exudate cells in Mc Coy's medium in vitro at 37° C. Type of assay: cell-based. The procedure: (§1) A. Scoring of drug activity:
(§2) a. amastigotes in peritoneal exudate cells in Mc Coy's medium in vitro at 37° C.
+++=clearance of all parasites in 24 hrs
++=clearance of all parasites in 48 hrs
+=clearance of all parasites in 72 hrs
±=partial clearance of parasites in 72 hours or more
-=no activity against parasites.

For another assay, the system named is Trypanosoma. In words: Trypanosoma in RPMI medium in vitro at 37° C. The settings on record: for Trypanosoma in vitro, activity score: RPMI medium, 37° C.; for active against Trypanosoma: summary. The class given is cell-based. The procedure: Trypanosoma in RPMI medium in vitro at 37° C. Scoring as in b.
In the next assay the test system is Leishmania. In words: Anti Leishmania tests (amastigotes and promastigotes), summary. The class given is cell-based, L. tropica. As to the method:
as §1, §2
(§3) b. promastigotes in Mc Coy's medium in vitro at 27° C.

The next assay concerns L. tropica promastigotes. The assay is described as follows: L. tropica promastigotes in Mc Coy's medium in vitro at 27° C. The class given is cell-based. As to the method: as §1, §3
+++=no viable parasites after 24 hours
++=no viable parasites after 48 hours
+=no viable parasites after 72 hours
±=no viable parasites after 96 hours
-=viable parasites after 120 hours.

For the next assay, the system named is Candida albicans. In words: Antimycotic activity (human), growth on Sabouraud dextrose agar. The class given is cell-based. The arrangement: key to the marks not given beside the values. The source says: Control (full growth): ++++
The subject of the next assay is Trichophyton rubrum. Described as above. Further details: key to the marks not given beside the values. To be noted: 10 μg/ml.
For assay [2], the system named is Trichophyton mentagrophytes. The description is as above. The arrangement: key to the marks not given beside the values. The settings on record: 10 μg/ml.
Assay [3] has as its system haloperidol-induced catalepsy. The assay is described as follows: Antiparkinson activity: anticataleptic effect in rats (haloperidol catalepsy). To be noted: individual rats, 80 mg/kg i.p., one line per rat, in order rat 1 to rat 5. Type of assay: in vivo, Male Charles River albino rats. The procedure:
Male Charles River albino rats, weighing 200-250 g, were used. Catalepsy was produced by haloperidol, 5 mg/kg i.p. The animals were placed with their front paws on a horizontal bar, about 10 cm above the ground, and animals were considered cataleptic if not changing posture for at least 30 sec. Cataleptic animals were injected l.p. with one of the drugs at a dose of 40-80 mg/kg. Catalepsy was estimated again at the intervals indicated.
Male Charles River albino rats, wighing 200-250 g, were used. Catalepsy was produced by haloperidol, 5 mg/kg i.p. The animals were placed with their front paws on a horizontal bar, about 10 cm above the ground, and animals were considered cataleptic if not changing posture for at least 30 sec. Cataleptic animals were injected i.p. with one of the drugs at a dose of 40-80 mg/kg. catalepsy was estimated again at the intervals indicated.

For assay [4], the system named is stereotyped behaviour (sniffing, biting, repetitive head movement). The assay is described as follows: Stereotyped behaviour in mice. Type of assay: in vivo, Male ICR albino mice. The arrangement: stereotyped behaviour score / Total Score (stereotyped behaviour) / Mean Score (stereotyped behaviour): scale not given here. To be noted: 50 mg/kg i.p. The procedure:
Male ICR albino mice weighing 25-30 g were put in cages with a metal grid floor, 4 in each cage. Drugs were injected intraperitoneally and stereotyped behaviour (sniffing, biting, repetitive head movement) was evaluated every 30 min.

The test system of another assay is HSV-1 (Herpes Simplex). In words: Inhibition test on HSV replication. The class given is cell-based. The settings on record: Human alphaherpesvirus 1, BSC-1 cells, 10 PFU/cell. The source says:
|INHIBITION TEST ON HSV REPLICATION |Cells |BSC-1 (Green monkey Kidney) |Virus |HSV-1 (Herpes Simplex) |Inoculum |10 PFU/cell |Medium |DMEM + 10% C.S. | Herpes | J. Levitt & Y. Becker | Virology 31, 129-134 (1967) | **% Inhibition of control infected for some time with same virus PFV with | no inhibition.

In the case of `c1ccc(CCNNCC23CC4CC(CC(C4)C2)C3)cc1` [Example 25, 1-(Adamant-1'-ylmethyl)-2-phenethylhydrazine dihydrate], in assay [1], the IC50 was in the range of 5 to 30 µg/mL.

Turning to `NNCC12CC3CC(CC(C3)C1)C2` [Example 14, (Adamant-1-ylmethyl)hydrazine hydrochloride], the “Leishmania amastigote, activity score” value is reported as “± (partial clearance of parasites in 72 hours or more)” in the assay with L. tropica amastigotes (10 μg) and “++ (clearance of all parasites in 48 hrs)” in the assay on L. tropica amastigotes (100 μg). For the same molecule, the “Trypanosoma in vitro, activity score” value in the assay with Trypanosoma (10 μg) and in the assay with Trypanosoma (100 μg) was “+++ (no viable parasites after 24 hours)” each time. Besides, the “active against Trypanosoma” value in the assay on Trypanosoma is “active”. In the assay on Leishmania, the “active against Leishmania” value was “active”.

Take `CNNCC12CC3CC(CC(C3)C1)C2` [Example 1, 1-(Adamant-1'-ylmethyl)-2-methylhydrazine hydrochloride]: the “Leishmania amastigote, activity score” value in the assay on L. tropica amastigotes (10 μg) and with L. tropica amastigotes (100 μg) was “± (partial clearance of parasites in 72 hours or more)” throughout. In addition, the “Leishmania promastigote, activity score” value with L. tropica promastigotes (10 μg) is “- (viable parasites after 120 hours.)”; in the assay on L. tropica promastigotes (100 μg) it was “+++ (no viable parasites after 24 hours)”. The “Trypanosoma in vitro, activity score” value in the assay on Trypanosoma (10 μg) is “± (no viable parasites after 96 hours)”; in the assay with Trypanosoma (100 μg), “+++ (no viable parasites after 24 hours)”. The “active against Trypanosoma” value in the assay with Trypanosoma is reported as “active”. Moreover, the “active against Leishmania” value in the assay with Leishmania is recorded as “active”.

Consider `CN(N)CC1C2CC3CC(C2)CC1C3` (stereo not drawn) [Example 16, 1-Methyl-1-(adamant-2'-ylmethyl)hydrazine hydrochloride], for which the “growth of C. albicans” value in the assay on Candida albicans (10 μg/ml) and in the assay on Candida albicans (50 μg/ml) was “++++” each time.

`C1CCN(NCC23CC4CC(CC(C4)C2)C3)CC1` [Example 8, 1-(Adamant-1'-ylmethylamino)piperidine hydrochloride]: the IC50 in assay [1] fell in the range of 5 to 30 µg/mL. In addition, the “growth of C. albicans” value in the assay on Candida albicans (10 μg/ml), in the assay with Candida albicans (50 μg/ml) and in the assay with Candida albicans (100 μg/ml) was “++++” throughout. For the same molecule, the “growth of T. rubrum” value in the assay on Trichophyton rubrum is recorded as “++++”. The “growth of T. mentagrophytes” value in [2] is reported as “++++”.

Turning to `NC12CC3CC(CC(C3)C1)C2` [Symmetrel, reference compound], the anticataleptic effect in assay [3] is 0/4 and 2/4 and 3/4 (3×). Also, in assay [4] (0-240 min, one line per mouse, in order Mouse 1 to Mouse 4, 50 mg/kg), the “Total Score (stereotyped behaviour)” value was 17 (3×) and 13. For the same molecule, the stereotyped behaviour score in [4] (0 min, one line per mouse, in order Mouse 1 to Mouse 4) was 0; in [4] (30 min, one line per mouse, in order Mouse 1 to Mouse 4), 1; in assay [4] (45 min, one line per mouse, in order Mouse 1 to Mouse 4), 1; in assay [4] (60 min, one line per mouse, in order Mouse 1 to Mouse 4, 50 mg/kg), 2 (2×) and 1 (2×); in assay [4] (90 min, one line per mouse, in order Mouse 1 to Mouse 4, 50 mg/kg), 1 (3×) and 2; in assay [4] (120 min, one line per mouse, in order Mouse 1 to Mouse 4) it was 2. Besides, the stereotyped behaviour score in [4] (135 min, one line per mouse, in order Mouse 1 to Mouse 4) was 2; in assay [4] (150 min, one line per mouse, in order Mouse 1 to Mouse 4) it was 2; in assay [4] (180 min, one line per mouse, in order Mouse 1 to Mouse 4) it was 2; in [4] (210 min, one line per mouse, in order Mouse 1 to Mouse 4, 50 mg/kg) it was 2 (3×) and 1; in assay [4] (240 min, one line per mouse, in order Mouse 1 to Mouse 4, 50 mg/kg) it was 2 (3×) and 0. Further, in assay [4] (mean of 4 mice), the “Mean Score (stereotyped behaviour)” value amounted to 16.

With `CN(N)CC12CC3CC(CC(C3)C1)C2` [Example 15, 1-Methyl-1-(adamant-1'-ylmethyl)hydrazine hydrochloride hydrate], the “Leishmania promastigote, activity score” value in the assay on L. tropica promastigotes (10 μg) is reported as “- (viable parasites after 120 hours.)”; in the assay on L. tropica promastigotes (100 μg), “+++ (no viable parasites after 24 hours)”. Also, the “active against Leishmania” value with Leishmania is reported as “active”.

For the molecule `c1ccc(CNNCC23CC4CC(CC(C4)C2)C3)cc1` [Example 3, 1-(Adamant-1'-ylmethyl)-2-benzylhydrazine hydrochloride], the IC50 in assay [1] lay in the range of 5 to 30 µg/mL. For the same molecule, the “growth of C. albicans” value in the assay with Candida albicans (10 μg/ml), with Candida albicans (50 μg/ml) and in the assay on Candida albicans (100 μg/ml) was “++++” in each case.

Regarding `N=C(N)c1ccc(OCCCCCOc2ccc(C(=N)N)cc2)cc1` [Pentamidine, reference compound], the “Leishmania promastigote, activity score” value in the assay with L. tropica promastigotes (10 μg) and in the assay on L. tropica promastigotes (100 μg) was “+++ (no viable parasites after 24 hours)” in each case. In addition, the “Trypanosoma in vitro, activity score” value with Trypanosoma (10 μg) is “- (viable parasites after 120 hours.)”; in the assay with Trypanosoma (100 μg), “++ (no viable parasites after 48 hours)”.

With `CC(C)N(N)CC12CC3CC(CC(C3)C1)C2` [Example 38, 1-(Adamant-1'-ylmethyl)-1-isopropylhydrazine hydrochloride], the IC50 in [1] was in the range of 5 to 30 µg/mL. Also, the “growth of C. albicans” value in the assay on Candida albicans (10 μg/ml), with Candida albicans (50 μg/ml) and with Candida albicans (100 μg/ml) was “++++” in each case. Further, in the assay with Trichophyton rubrum, the “growth of T. rubrum” value is given as “++++”. Moreover, the “growth of T. mentagrophytes” value in assay [2] is “++++”.

For orientation: inhibition means the share of the control response that was lost under treatment. Molecule `C1CCN(NCC2C3CC4CC(C3)CC2C4)C1` (stereo not drawn) [Example 31, 1-(Adamant-2'-ylmethylamino)pyrrolidine hydrochloride] had an inhibition at 25 µg/mL in the assay on HSV-1 (Herpes Simplex) (25 μg/ml) of 51%. The inhibition at 50 µg/mL with HSV-1 (Herpes Simplex) (50 μg/ml) was found to be 91%. For the same molecule, in the assay on HSV-1 (Herpes Simplex) (100 μg/ml), the inhibition at 100 µg/mL was 97%.
